Test results taken from ChEMBL document CHEMBL6109117, “Synthesis of an RBM39 Degrader That Downregulates CEP192 and Induces Disorganized Spindle Structures” (J Med Chem, 2025).
Activity calls are given as the source filed them. No cut-off for these calls is given here.

What was measured:
K562 [1] = test: Induction of spliceosome function impairment in human K562 cells assessed as increase in CUL4A RI transcript incubated for 12 hrs by qRT-PCR analysis; assay type: functional, cell-based; settings: dose 1-10 µM
HCT-116 [2] = test: Downregulation of KNL1 expression in human HCT-116 cells incubated for 24 hrs by Western blot analysis; assay type: functional, cell-based
K562 [3] = test: Effect on RNA splicing in human K562 cells assessed as CEP192 gene alternative 3' splicing site at 2 uM incubated for 12 hrs by RNA-seq analysis; assay type: functional, cell-based
[4] = Effect on RNA splicing in human HCT-116 cells assessed as number of mutually exclusive exons at 2 uM incubated for 12 hrs by RNA-seq analysis; assay type: functional
K562 [5] = test: Induction of spliceosome function impairment in human K562 cells assessed as decrease in CUL4A transcript at 1 to 10 uM incubated for 12 hrs by qRT-PCR analysis; assay type: functional, cell-based; settings: dose 1-10 µM
MV4-11 [6] = test: Induction of spliceosome function impairment in human MV4-11 cells assessed as increase in CUL4A RI transcript incubated for 12 hrs by qRT-PCR analysis; assay type: functional, cell-based; settings: dose 1-10 µM
HCT-116 [7] = test: Induction of RBM39 degradation in human HCT-116 cells incubated for 24 hrs by Western blot analysis; assay type: cell-based
MV4-11 [8] = test: Induction of spliceosome function impairment in human MV4-11 cells assessed as increase in NCKAP1L RI transcript incubated for 12 hrs by qRT-PCR analysis; assay type: functional, cell-based; settings: dose 1-10 µM
HCT-116 [9] = test: Antiproliferative activity against human HCT-116 cells incubated for 4 days by CCK8 assay; assay type: functional, cell-based; settings: HCT-116, 96 h
HCT-116 [10] = test: Induction of cell cycle arrest in human HCT-116 cells assessed as accumulation at G2/M phase at 5 uM incubated for 48 hrs by PI staining based flow cytometry relative to control; assay type: functional
MV4-11 [11] = test: Induction of spliceosome function impairment in human MV4-11 cells assessed as decrease in PRPF38A transcript at 1 to 10 uM incubated for 12 hrs by qRT-PCR analysis; assay type: functional, cell-based; settings: dose 1-10 µM
[12] = Effect on RNA splicing in human HCT-116 cells assessed as number of skipping exons at 2 uM incubated for 12 hrs by RNA-seq analysis; assay type: functional
K562 [13] = test: Induction of spliceosome function impairment in human K562 cells assessed as increase in PRPF38A RI transcript incubated for 12 hrs by qRT-PCR analysis; assay type: functional, cell-based; settings: dose 1-10 µM
HCT-116 [14] = test: Induction of RBM39 degradation in human HCT-116 cells at 0.1 to 1 uM incubated for 24 hrs by Western blot analysis; assay type: cell-based; settings: dose 0.1-1 µM
K562 [15] = test: Induction of spliceosome function impairment in human K562 cells assessed as decrease in PRPF38A transcript at 1 to 10 uM incubated for 12 hrs by qRT-PCR analysis; assay type: functional, cell-based; settings: dose 1-10 µM
K562 [16] = test: Effect on RNA splicing in human K562 cells assessed as CEP192 gene skipping exon at 2 uM incubated for 12 hrs by RNA-seq analysis; assay type: functional, cell-based
HCT-116 [17] = test: Induction of cell cycle arrest in human HCT-116 cells assessed as accumulation at G2/M phase at 0.1 to 5 uM incubated for 48 hrs by PI staining based flow cytometry; assay type: functional; settings: dose 0.1-5 µM
MV4-11 [18] = test: Induction of spliceosome function impairment in human MV4-11 cells assessed as decrease in ZNF207 transcript at 1 to 10 uM incubated for 12 hrs by qRT-PCR analysis; assay type: functional, cell-based; settings: dose 1-10 µM
HCT-116 [19] = test: Downregulation of RTTN expression in human HCT-116 cells incubated for 24 hrs by Western blot analysis; assay type: functional, cell-based
K562 [20] = test: Effect on RNA splicing in human K562 cells assessed as ESPL1 gene alternative 5' splicing site at 2 uM incubated for 12 hrs by RNA-seq analysis; assay type: functional, cell-based
MV4-11 [21] = test: Induction of spliceosome function impairment in human MV4-11 cells assessed as decrease in NCKAP1L transcript at 1 to 10 uM incubated for 12 hrs by qRT-PCR analysis; assay type: functional, cell-based; settings: dose 1-10 µM
HCT-116 [22] = test: Induction of cell cycle arrest in human HCT-116 cells assessed as accumulation at G2/M phase at 1 uM by PI staining based flow cytometry; assay type: functional
HCT-116 [23] = test: Effect on RNA splicing in human HCT-116 cells assessed as RTTN gene exon splicing at 2 uM incubated for 12 hrs by RNA-seq analysis; assay type: functional, cell-based
HCT-116 [24] = test: Effect on mitosis in human HCT-116 cells assessed as disorganized spindle phenotype at 1 uM incubated for 48 hrs by immunofluorescence based analysis; assay type: functional, cell-based
HCT-116 [25] = test: Induction of spliceosome function impairment in human HCT-116 cells assessed as decrease in ZNF207 exon8-exon10 RNA level at 1 to 10 uM incubated for 12 hrs by qRT-PCR analysis; assay type: functional, cell-based; settings: dose 1-10 µM
K562 [26] = test: Induction of spliceosome function impairment in human K562 cells assessed as decrease in NCKAP1L transcript at 1 to 10 uM incubated for 12 hrs by qRT-PCR analysis; assay type: functional, cell-based; settings: dose 1-10 µM
HCT-116 [27] = test: Downregulation of CENPI expression in human HCT-116 cells incubated for 24 hrs by Western blot analysis; assay type: functional, cell-based
HCT-116 [28] = test: Effect on RNA splicing in human HCT-116 cells assessed as KNL1 gene exon splicing at 2 uM incubated for 12 hrs by RNA-seq analysis; assay type: functional, cell-based
K562 [29] = test: Effect on RNA splicing in human K562 cells assessed as CEP192 gene skipping exons up to 10 uM by PCR analysis; assay type: functional, cell-based; settings: time 1-24 hrs
HCT-116 [30] = test: Induction of RBM39 degradation in human HCT-116 cells at 3 to 300 nM incubated for 24 hrs in presence of MLN4924 by Western blot analysis; assay type: cell-based; settings: dose 3-300 nM
K562 [31] = test: Effect on RNA splicing in human K562 cells assessed as RTTN gene skipping exon at 2 uM incubated for 12 hrs by RNA-seq analysis; assay type: functional, cell-based
K562 [32] = test: Effect on RNA splicing in human K562 cells assessed as CEP192 gene retention of introns up to 10 uM by PCR analysis; assay type: functional, cell-based; settings: time 1-24 hrs
HCT-116 [33] = test: Induction of apoptosis in human HCT-116 cells assessed as change in PARP level at 0.1 to 5 uM incubated for 48 hrs by Western blot analysis; assay type: functional, cell-based; settings: dose 0.1-5 µM
HCT-116 [34] = test: Induction of RBM39 degradation in human HCT-116 cells at 1 uM incubated for 24 hrs by mass spectrometry-based proteomic analysis; assay type: cell-based
MV4-11 [35] = test: Induction of spliceosome function impairment in human MV4-11 cells assessed as decrease in CUL4A transcript at 1 to 10 uM incubated for 12 hrs by qRT-PCR analysis; assay type: functional, cell-based; settings: dose 1-10 µM
HCT-116 [36] = test: Effect on RNA splicing in human HCT-116 cells assessed as RTTN gene retention of intron at 2 uM incubated for 12 hrs by RNA-seq analysis; assay type: functional, cell-based
HCT-116 [37] = test: Induction of apoptosis in human HCT-116 cells assessed as change in caspase-3 level at 0.1 to 5 uM incubated for 48 hrs by Western blot analysis; assay type: functional, cell-based; settings: dose 0.1-5 µM
HCT-116 [38] = test: Effect on RNA splicing in human HCT-116 cells assessed as ESPL1 gene exon splicing at 2 uM incubated for 12 hrs by RNA-seq analysis; assay type: functional, cell-based
HCT-116 [39] = test: Induction of RBM39 degradation in human HCT-116 cells assessed as fold change at 0.1 uM incubated for 24 hrs by Western blot analysis relative to control; assay type: cell-based

Compound | Activity (K562 [1]) | Activity (HCT-116 [2]) | Activity (K562 [3]) | Activity [4] | Activity (K562 [5]) | Activity (MV4-11 [6]) | Activity (HCT-116 [7]) | Activity (MV4-11 [8]) | IC50 (HCT-116 [9]) | Activity (HCT-116 [10]) | Activity (MV4-11 [11]) | Activity [12] | Activity (K562 [13]) | Activity (HCT-116 [14]) | Activity (K562 [15]) | Activity (K562 [16]) | Activity (HCT-116 [17]) | Activity (MV4-11 [18]) | Activity (HCT-116 [19]) | Activity (K562 [20]) | other results
NS(=O)(=O)c1ccc(S(=O)(=O)Nc2cccc3c(Cl)c[nH]c23)cc1 [INDISULAM] | Active | Dose-dependent-effect | Active | 667 | Active | Active | Dose-dependent-effect | Active | 96.8 nM | 55% | Active | 10485 | Active | Active | Active | Active | Active | Active | Dose-dependent-effect | Active | Activity (MV4-11 [21]): Active; Activity (HCT-116 [22]): Time-dependent-effect; Activity (HCT-116 [23]): Active; Activity (HCT-116 [24]): Active; Disorganized Spindle Phenotype Was Characterized By Random Microtubule Distribution Surrounding Condensed And Undivided Chromosomes; Activity (HCT-116 [25]): Active; Activity (K562 [26]): Active; Activity (HCT-116 [27]): Dose-dependent-effect; Activity (HCT-116 [28]): Active; Activity (K562 [29]): Time-dependent-effect; Observed Skipping Exons 42 And 28; Activity (HCT-116 [30]): inactive; Activity (K562 [31]): Active; Activity (K562 [32]): Time-dependent-effect; Observed Retention Of Introns Between Exons 27 And 28; Activity (HCT-116 [33]): inactive; Activity (HCT-116 [34]): Active; Activity (MV4-11 [35]): Active; Activity (HCT-116 [36]): Active; Activity (HCT-116 [37]): inactive; Activity (HCT-116 [38]): Active; fold change (FC) (HCT-116 [39]): 0.59
Cc1ccc(NS(=O)(=O)c2cccc(NC(=O)C(=O)N3CCC[C@@H]3CO)c2)c2[nH]cc(C#N)c12 | Active | Dose-dependent-effect | Active | 515 | Active | Active | Dose-dependent-effect | Active | 36.7 nM | 60% | Active | 8905 | Active | Active | Active | Active | Active | Active | Dose-dependent-effect | Active | Activity (MV4-11 [21]): Active; Activity (HCT-116 [22]): Time-dependent-effect; Activity (HCT-116 [23]): Active; Activity (HCT-116 [24]): Active; Disorganized Spindle Phenotype Was Characterized By Random Microtubule Distribution Surrounding Condensed And Undivided Chromosomes; Activity (HCT-116 [25]): Active; Activity (K562 [26]): Active; Activity (HCT-116 [27]): Dose-dependent-effect; Activity (HCT-116 [28]): Active; Activity (K562 [29]): Time-dependent-effect; Observed Skipping Exons 42 And 28; Activity (HCT-116 [30]): inactive; Activity (K562 [31]): Active; Activity (K562 [32]): Time-dependent-effect; Observed Retention Of Introns Between Exons 27 And 28; Activity (HCT-116 [33]): inactive; Activity (HCT-116 [34]): Active; Activity (MV4-11 [35]): Active; Activity (HCT-116 [36]): Active; Activity (HCT-116 [37]): inactive; Activity (HCT-116 [38]): Active; fold change (FC) (HCT-116 [39]): 0.61
